Entries after “also recorded” stand apart in the source; their conditions may differ. Where two headings read alike, the source gives them in different places. Residues, ends and D or L forms follow the SMILES beside them. *: point of attachment. Propanoyl(3-C8F17) = O=C(CCC(F)(F)C(F)(F)C(F)(F)C(F)(F)C(F)(F)C(F)(F)C(F)(F)C(F)(F)F)*
Assays:
[1] = assay type: physicochemical; settings: for Further dilution in Mannitol:Water Solubility: FCP 0.167 mM, 1.33% (w/v) mannitol, cloudiness / particulates; for Dispersion in Water Solubility: FCP 1.333 mM in water, vortexed and sonicated, cloudiness (Clear/Cloudy−/Cloudy/Cloudy+) / particulates
Description: The solubility of each FCP in water was assessed. Each FCP was dispersed in 300 μl of water to a final concentration of 1.333 mM and vortexed and sonicated. The typical dispersion conditions were four sequences of three minutes bath sonication interspersed by 30 seconds vortexing. After inspection, the resulting solution was diluted with a mannitol solution (a candidate lyophilisation medium, final concentration of peptide 0.167 mM, 1.33% (w/v) mannitol). Solubility was assessed by visual observation of the cloudiness of the resulting dispersion (scaled: Clear/Cloudy−/Cloudy/Cloudy+) and presence of particulates. […]

[2] = assay type: physicochemical; settings: 1.33% mannitol, 0.22 μm PVDF filter; for YIELD % of each FCP following sterile filtration, MIX 1: MIX 1 dispersed in water; for YIELD % of each FCP following sterile filtration, MIX 2: MIX 2 dispersed in water
[3] = assay type: physicochemical; settings: for Percentage acetic acid (% v/v): minimum concentration for acceptable dispersibility and solubility: FCP 2 μmol/ml after acetic acid dispersion; for Visual appearance after dispersion: at the listed acetic acid concentration, FCP 2 μmol/ml
Description: In order to limit the concentration of acetic acid downstream in the formulation process and in the final product, the lowest concentration of acetic acid in water to achieve efficient dispersion and maintain visible solubility was determined for each fluorocarbon-linked peptide. When using mannitol as a cryprotectant, it is important to minimize the acetic acid concentration at the lyophilisation stage in order to achieve a stable and amorphous freeze-dried product. The minimum acetic acid concentration to achieve acceptable dispersibility and solubility of the individual fluorocarbon-linked peptides was determined. The final concentration of fluorocarbon-linked peptide after initial acetic acid dispersion was 2 μmol/ml and after dilution with mannitol, 0.250 μmol/ml.

[4] = for Ease of solubility, Cycle 1 Vortexing: 10 mg net/ml in 10% (FCP1, 2, 4, 5) or 80% (FCP9, 8) acetic acid; for Ease of solubility, Cycle 1 Sonication / Ease of solubility, Cycle 2 Sonication / Ease of solubility, Cycle 2 Vortexing / Ease of solubility, Cycle 3 Sonication / Ease of solubility, Cycle 3 Vortexing: 10 mg net/ml in 10% or 80% acetic acid; for Visual appearance after dispersion: 10 mg net/ml in AcOH 10% or 80%

SMILES | Further dilution in Mannitol:Water Solubility [1] | Dispersion in Water Solubility [1] | YIELD % of each FCP following sterile filtration, MIX 1 [2] [%] | YIELD % of each FCP following sterile filtration, MIX 2 [2] [%] | Percentage acetic acid (% v/v): minimum concentration for acceptable dispersibility and solubility [3] [% v/v] | Visual appearance after dispersion [3] | Ease of solubility, Cycle 1 Vortexing [4] | Ease of solubility, Cycle 1 Sonication [4] | Ease of solubility, Cycle 2 Sonication [4] | Ease of solubility, Cycle 2 Vortexing [4] | Ease of solubility, Cycle 3 Sonication [4] | Ease of solubility, Cycle 3 Vortexing [4] | Visual appearance after dispersion [4] | Physical stability of formulation at less than 80% (v/v) acetic acid ([3]; gel or soluble particulates formed over time)
CC[C@H](C)[C@H](NC(=O)[C@H](CC(C)C)NC(=O)[C@H](C)NC(=O)[C@H](CO)NC(=O)[C@H](CCCNC(=N)N)NC(=O)[C@H](C)NC(=O)[C@H](CC(C)C)NC(=O)[C@H](Cc1ccccc1)NC(=O)[C@@H](NC(=O)[C@H](CC(C)C)NC(=O)[C@H](CC(=O)O)NC(=O)[C@H](CCC(=O)O)NC(=O)[C@@H](NC(=O)[C@H](CCC(=O)O)NC(=O)[C@H](C)NC(=O)[C@H](CC(N)=O)NC(=O)CNC(=O)[C@@H]1CCCN1C(=O)[C@H](CC(N)=O)NC(=O)[C@H](CCCNC(=N)N)NC(=O)[C@H](CO)NC(=O)[C@H](CCC(=O)O)NC(=O)[C@H](CCCNC(=N)N)NC(=O)[C@@H](NC(=O)[C@H](CCC(N)=O)NC(=O)[C@H](CC(=O)O)NC(=O)[C@@H](N)CCCCNC(=O)CCC(F)(F)C(F)(F)C(F)(F)C(F)(F)C(F)(F)C(F)(F)C(F)(F)C(F)(F)F)C(C)C)[C@@H](C)CC)[C@@H](C)CC)C(=O)N[C@@H](CC(C)C)C(=O)N[C@@H](CCCNC(=N)N)C(=O)NCC(=O)N[C@@H](CO)C(=O)N[C@H](C(=O)N[C@@H](C)C(=O)N[C@@H](Cc1c[nH]cn1)C(=O)N[C@@H](CCCCN)C(=O)N[C@@H](CO)C(N)=O)C(C)C [FCP4] | fully soluble; also recorded: Clear/No Particulates | fully soluble; also recorded: Clear/No Particulates | 25.1 | 82.3 | 10 | Clear | Clear | Clear | Clear | Clear | Clear | Clear | Clear | –
CC[C@H](C)[C@H](NC(=O)[C@@H]1CCCN1C(=O)[C@H](C)NC(=O)[C@@H](N)CCCCNC(=O)CCC(F)(F)C(F)(F)C(F)(F)C(F)(F)C(F)(F)C(F)(F)C(F)(F)C(F)(F)F)C(=O)N[C@@H](CCSC)C(=O)N[C@@H](Cc1ccccc1)C(=O)N[C@@H](CO)C(=O)N[C@@H](CC(N)=O)C(=O)N[C@@H](CCCCN)C(=O)N[C@@H](CCSC)C(=O)N[C@@H](C)C(=O)N[C@@H](CCCNC(=N)N)C(=O)N[C@@H](CC(C)C)C(=O)NCC(=O)N[C@@H](CCCCN)C(=O)NCC(=O)N[C@@H](Cc1ccc(O)cc1)C(=O)N[C@@H](CCSC)C(=O)N[C@@H](Cc1ccccc1)C(=O)N[C@@H](CCC(=O)O)C(=O)N[C@@H](CO)C(=O)N[C@@H](CCCCN)C(=O)N[C@@H](CCCNC(=N)N)C(=O)N[C@@H](CCSC)C(=O)N[C@@H](CCCCN)C(=O)N[C@@H](CC(C)C)C(=O)N[C@@H](CCCNC(=N)N)C(=O)N[C@H](C(=O)N[C@@H](CCC(N)=O)C(=O)N[C@H](C(=O)N1CCC[C@H]1C(=O)N[C@@H](C)C(=O)N[C@@H](CCC(=O)O)C(=O)N[C@@H](CCSC)C(=O)N[C@@H](CC(C)C)C(=O)N[C@@H](C)C(N)=O)[C@@H](C)CC)[C@@H](C)O [FCP2] | fully soluble; also recorded: Clear/No Particulates | Cloudy−/No Particulates | – | 97.3 | 10 | Clear | Clear | Clear | Clear | Clear | Clear | Clear | Clear | –
CC[C@H](C)[C@H](NC(=O)[C@H](C)NC(=O)[C@H](CCSC)NC(=O)[C@H](Cc1c[nH]cn1)NC(=O)[C@@H](N)CCCCNC(=O)CCC(F)(F)C(F)(F)C(F)(F)C(F)(F)C(F)(F)C(F)(F)C(F)(F)C(F)(F)F)C(=O)N[C@H](C(=O)N[C@@H](CCCCN)C(=O)N[C@@H](CCCCN)C(=O)N[C@@H](Cc1ccc(O)cc1)C(=O)N[C@H](C(=O)N[C@@H](CO)C(=O)NCC(=O)N[C@@H](CCCNC(=N)N)C(=O)N[C@@H](CCC(N)=O)C(=O)N[C@@H](CCC(=O)O)C(=O)N[C@@H](CCCCN)C(=O)N[C@@H](CC(N)=O)C(=O)N1CCC[C@H]1C(=O)N[C@@H](CO)C(=O)N[C@@H](CC(C)C)C(=O)N[C@@H](CCCNC(=N)N)C(=O)N[C@@H](CCSC)C(=O)N[C@@H](CCCCN)C(=O)N[C@@H](Cc1c[nH]c2ccccc12)C(=O)N[C@@H](CCSC)C(=O)N[C@@H](CCSC)C(=O)N[C@@H](C)C(=O)N[C@@H](CCSC)C(=O)N[C@@H](CCCCN)C(=O)N[C@@H](Cc1ccc(O)cc1)C(=O)N1CCC[C@H]1C(=O)N[C@H](C(=O)N[C@H](C(=O)N[C@@H](C)C(=O)N[C@@H](CC(=O)O)C(=O)N[C@@H](CCCCN)C(N)=O)[C@@H](C)O)[C@@H](C)CC)[C@@H](C)O)[C@@H](C)CC [FCP1] | partially soluble; also recorded: Clear/Particulates | Cloudy/Particulates | 89.9 | – | 10 | Clear | Clear | Clear | Clear | Clear | Clear | Clear | Clear | –
CC[C@H](C)[C@H](NC(=O)[C@H](Cc1ccc(O)cc1)NC(=O)[C@@H](NC(=O)[C@H](CO)NC(=O)[C@H](CO)NC(=O)[C@@H](NC(=O)CNC(=O)CNC(=O)[C@H](C)NC(=O)[C@@H](NC(=O)[C@@H]1CCCN1C(=O)[C@H](CC(C)C)NC(=O)[C@H](Cc1ccccc1)NC(=O)[C@H](CCCNC(=N)N)NC(=O)[C@@H](NC(=O)[C@H](CCCCN)NC(=O)[C@H](CCCNC(=N)N)NC(=O)[C@@H](NC(=O)[C@H](CC(C)C)NC(=O)[C@H](CCC(=O)O)NC(=O)[C@H](CCCNC(=N)N)NC(=O)[C@H](CCC(=O)O)NC(=O)[C@H](CC(C)C)NC(=O)[C@H](CCSC)NC(=O)[C@H](Cc1ccc(O)cc1)NC(=O)[C@H](C)NC(=O)[C@@H](NC(=O)[C@@H](N)CCCCNC(=O)CCC(F)(F)C(F)(F)C(F)(F)C(F)(F)C(F)(F)C(F)(F)C(F)(F)C(F)(F)F)C(C)C)C(C)C)[C@@H](C)O)C(C)C)[C@@H](C)O)C(C)C)C(=O)N[C@@H](CCC(=O)O)C(=O)N[C@H](C(=O)N[C@@H](CC(C)C)C(=O)N[C@@H](Cc1c[nH]cn1)C(=O)N[C@@H](CC(C)C)C(=O)N[C@H](C(=O)N[C@@H](CCC(N)=O)C(=O)NCC(N)=O)[C@@H](C)O)C(C)C [FCP8] (H-K(Propanoyl(3-C8F17))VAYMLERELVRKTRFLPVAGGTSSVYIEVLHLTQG-NH2) | insoluble; also recorded: Cloudy/Particulates | Cloudy/Particulates | – | 25.3 | 80 | Clear | Particulates+ | Some | – | Some | Clear | – | Clear | physically unstable over time
